Test results: paper PMC9750858, “Rapid biosensor development using plant hormone receptors as reprogrammable scaffolds” (Nature Biotechnology, 2022)
Where “and” joins values, the source holds several entries; their conditions need not be identical. Equal values may be shown once. Read-outs that look alike come from different tables or passages of the source.

Legend:
PYR1^WIN-M = target: T1, PYR1^WIN-M (Arabidopsis thaliana, UniProt O49686, A160I/D26G/E4G/F159A/H60P/K59Q/N90S/Y23H); assay: ELISA-like plate assay, immobilized PYR1^WIN-M, biotinylated ΔN-HAB1^T+; format: binding; conditions: replicates
T1 construct: made in house
T1 sequence (O49686 with tags, fused parts or gaps E4G/Y23H/D26G/K59Q/H60P/N90S/F159A/A160I): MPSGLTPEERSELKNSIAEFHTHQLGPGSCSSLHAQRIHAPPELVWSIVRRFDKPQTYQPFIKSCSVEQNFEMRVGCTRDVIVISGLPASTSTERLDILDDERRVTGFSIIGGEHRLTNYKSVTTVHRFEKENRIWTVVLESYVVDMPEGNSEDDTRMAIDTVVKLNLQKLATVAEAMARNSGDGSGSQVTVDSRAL

PYR1^4F [1] = target: T2, PYR1^4F (Arabidopsis thaliana, UniProt O49686, A160G/F159V/H115Q/Y120G); assay: Yeast transcriptional activation circuit Z4-PYR1/VP64-ΔN-HAB1, GFP reporter, PYR1^4F
T2 sequence (O49686 with tags, fused parts or gaps H115Q/Y120G/F159V/A160G): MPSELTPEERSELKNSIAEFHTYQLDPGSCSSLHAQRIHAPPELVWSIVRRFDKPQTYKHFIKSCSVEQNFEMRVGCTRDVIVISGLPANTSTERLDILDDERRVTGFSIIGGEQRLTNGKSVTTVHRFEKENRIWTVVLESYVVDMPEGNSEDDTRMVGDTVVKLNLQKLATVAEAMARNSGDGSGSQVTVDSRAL
T2 sequence (Q9CAJ0 179-511 partner): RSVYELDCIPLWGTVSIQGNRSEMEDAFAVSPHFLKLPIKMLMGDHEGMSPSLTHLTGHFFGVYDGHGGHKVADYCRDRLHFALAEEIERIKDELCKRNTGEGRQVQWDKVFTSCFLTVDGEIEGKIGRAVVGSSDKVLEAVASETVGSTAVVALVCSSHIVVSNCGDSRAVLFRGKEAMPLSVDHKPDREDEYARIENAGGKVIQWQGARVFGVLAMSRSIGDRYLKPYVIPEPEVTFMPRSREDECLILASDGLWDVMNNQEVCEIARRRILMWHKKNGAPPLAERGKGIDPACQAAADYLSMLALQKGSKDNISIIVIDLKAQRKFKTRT

PYR1^4F [2] = target: T2, PYR1^4F; assay: Split NanoLuc luciferase complementation in yeast, NLuc^N-PYR1^4F/NLuc^C-ΔN-HAB1; format: cell-based; parameters: >PYR1-4FMDMB; expressed in transfected cells; host or cells: Saccharomyces cerevisiae BY4742
PYR1^4F / ΔN-HAB1 = target: T3, PYR1^4F / ΔN-HAB1 (Arabidopsis thaliana, UniProt O49686, A160G/F159V/H115Q/Y120G); assay: Ligand/receptor-mediated PP2C (ΔN-HAB1 phosphatase) inhibition, PYR1^4F; format: biochemical
T3 construct: 6xHis (N); made in house; host or cells: E. coli BL21 (DE3) pLysS
T3 sequence (O49686 with tags, fused parts or gaps H115Q/Y120G/F159V/A160G): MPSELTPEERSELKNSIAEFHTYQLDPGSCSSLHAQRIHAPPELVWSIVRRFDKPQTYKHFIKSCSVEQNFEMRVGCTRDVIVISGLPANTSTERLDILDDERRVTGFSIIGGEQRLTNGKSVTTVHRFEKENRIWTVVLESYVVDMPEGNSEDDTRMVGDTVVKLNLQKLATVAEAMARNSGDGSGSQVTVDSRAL
T3 sequence (Q9CAJ0 179-511 partner): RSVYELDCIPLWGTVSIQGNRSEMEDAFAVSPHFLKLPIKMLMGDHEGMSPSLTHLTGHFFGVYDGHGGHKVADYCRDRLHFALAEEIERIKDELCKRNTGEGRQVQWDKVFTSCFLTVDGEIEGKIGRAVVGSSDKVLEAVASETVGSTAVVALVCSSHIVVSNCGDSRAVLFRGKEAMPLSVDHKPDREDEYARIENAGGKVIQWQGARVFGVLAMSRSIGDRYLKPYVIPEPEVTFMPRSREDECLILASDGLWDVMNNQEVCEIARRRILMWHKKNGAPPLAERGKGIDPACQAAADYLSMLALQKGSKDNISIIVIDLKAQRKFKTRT
Procedure: Coding sequences of the cannabinoid sensors were cloned into the protein expression vector pET28a to encode 6×His-tag-receptor fusions. Constructs were sequenced and transformed into the BL21 (DE3) pLysS E. coli strain for heterologous expression with IPTG (1 mM), followed by purification, using affinity chromatography, as previously reported. In vitro validation of evolved sensors was performed by using recombinant sensors and ΔN-HAB1 (HAB1 Δ1–178, ref. [36]) proteins, as previously described. […] Cannabinoid concentration curves ranged from 4 to 10,000 nM, and median inhibitory concentrations for PP2C inhibition were obtained via fluorescent measurement in the presence of 1 mM 4-methylumbelliferyl phosphate.

PYR1^DIAZI [3] = target: T4, PYR1^DIAZI (Arabidopsis thaliana, UniProt O49686, A160V/E8G/F108Y/F159G/L87M/M158V/V81Y); assay: Split NanoLuc luciferase complementation in yeast, NLuc^N-PYR1^DIAZI/NLuc^C-HAB1; format: cell-based; parameters: >PYR1-DIAZI; expressed in transfected cells; host or cells: Saccharomyces cerevisiae BY4742; conditions: Figure 4f(top), 3 replicates
T4 sequence (O49686 other isoform, or with tags, fused parts or gaps E8G/V81Y/L87M/F108Y/M158V/F159G/A160V, one chain of several): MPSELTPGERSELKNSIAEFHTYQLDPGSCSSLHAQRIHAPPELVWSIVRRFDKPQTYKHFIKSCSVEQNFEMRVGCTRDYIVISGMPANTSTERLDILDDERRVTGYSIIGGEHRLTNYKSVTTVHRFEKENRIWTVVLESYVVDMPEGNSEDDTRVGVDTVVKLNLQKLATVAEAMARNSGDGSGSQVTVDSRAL

PYR1^DIAZI [4] = target: T4, PYR1^DIAZI; assay: Yeast transcriptional activation circuit Z4-PYR1/VP64-ΔN-HAB1, GFP reporter, PYR1^DIAZI; conditions: read-out: EC50, yeast transcription circuit; PYR1^DIAZI, off-target ligand
ABA-PYR1M complex = target: T5, ABA-PYR1M complex (Arabidopsis thaliana, UniProt O49686, H60P/N90S); assay: Yeast surface display titration of HAB1 variants against PYR1^M in the presence of 500 nM ABA; format: binding; conditions: HAB1 variant for the ABA-PYR1M complex, 95% CI in brackets, read-out: KD2
T5 construct: c-myc (display detection tag); expressed in transfected cells; host or cells: yeast (surface display of PYR1^M); the HAB1 variants were recombinant and purified
T5 sequence (O49686 1-191 H60P/N90S): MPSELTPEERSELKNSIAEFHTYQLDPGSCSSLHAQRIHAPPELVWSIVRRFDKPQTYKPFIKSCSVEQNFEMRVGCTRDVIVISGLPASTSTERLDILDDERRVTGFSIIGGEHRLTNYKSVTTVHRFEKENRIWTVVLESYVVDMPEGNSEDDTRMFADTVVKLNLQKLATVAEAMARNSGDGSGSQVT
Procedure: For crystallographic structures, PYL2 and ΔN-HAB1^T+ were expressed in E. coli and purified as described previously. Assays for phosphatase activity and apparent Tm, measured via thermal challenge using yeast surface display, were performed essentially as previously described.
(a) Assessment of stabilized, inactivated 6xHis -MBP-ΔN -HAB1 variants. Experiments were repeated on two separat e days using independently generated batches of protein. Error bars indicate 1 SD of 3 measure ments . Sets of mutations f or each variant are noted in Supporting File 1.
MBP-ΔN -HAB1 variants using p-NPP.
HAB1 variants using YSD of PYR1M, in the presence of 500 nM ABA and 20 nM 6xHis -MBP-ΔN -HAB1 variant. The […]
here ref ers to streptavidin -phycoerythrin.
(b) Gating strategy for analysis of data shown in part (a). The f luorescence (a.u.) reported in part (a) is the gated ΔN - HAB 1T+ binding as measured by streptavidin -phycoeryt hrin (SAPE).

For COC(=O)C(NC(=O)c1nn(CCCCF)c2ccccc12)C(C)(C)C (stereo not drawn) [4F-MDMB, 4F-MDMB-BUTINACA], the “ELISA signal generation, receptor cross-reactivity (source data)” value (PYR1^WIN-M; cannabinoid at 2 nM) was 0.813 and 0.154 and 0.125, the “ELISA signal generation, receptor cross-reactivity (source data)” value (PYR1^WIN-M; cannabinoid at 2 μM) was 0.116 and 0.117 and 0.101 and the EC50 (PYR1^4F [1]) was 23 nM. For the same molecule, the EC50 (PYR1^4F [2]) was 25 nM and the EC50 (PYR1^4F / ΔN-HAB1) was 102 nM.

CCOP(=S)(OCC)SCn1nnc2ccccc2c1=O [Azinphos-ethyl, azinphos-ethyl] was tested, and the “Sensor signal (Figure 4f top), replicate values” (from here on “Sensor signal (Figure 4f top)”) (PYR1^DIAZI [3]; [Agonist] 1e-5 nM) was 19.1784 and 9.602 and 15.5607, the “Sensor signal (Figure 4f top)” value (PYR1^DIAZI [3]; [Agonist] 0.5 nM) was 28.6964 and 14.557 and 20.4786 and the “Sensor signal (Figure 4f top)” value (PYR1^DIAZI [3]; [Agonist] 1 nM) was 22.2741 and 20.8671 and 16.0353. For the same molecule, the “Sensor signal (Figure 4f top)” value (PYR1^DIAZI [3]; [Agonist] 10 nM) was 14.152 and 32.187 and 17.3809, the “Sensor signal (Figure 4f top)” value (PYR1^DIAZI [3]; [Agonist] 100 nM) was 20.787 and 38.118 and 25.3718 and the “Sensor signal (Figure 4f top)” value (PYR1^DIAZI [3]; [Agonist] 1000 nM) was 52.3582 and 54.3696 and 50.5941. The “Sensor signal (Figure 4f top)” value (PYR1^DIAZI [3]; [Agonist] 10000 nM) was 95.7293 and 70.2485 and 89.5341, the “Sensor signal (Figure 4f top)” value (PYR1^DIAZI [3]; [Agonist] 100000 nM) was 109.007 and 68.7025 and 93.3077 and the EC50 (PYR1^DIAZI [4]) was 1100 nM.

B1: WT (636): 6×His–MBP–ΔN-HAB1 (C186S, C274S) (protein)
chain: RSVYELDSIPLWGTVSIQGNRSEMEDAFAVSPHFLKLPIKMLMGDHEGMSPSLTHLTGHFFGVYDGHGGHKVADYCRDRLHFALAEEIERIKDELSKRNTGEGRQVQWDKVFTSCFLTVDGEIEGKIGRAVVGSSDKVLEAVASETVGSTAVVALVCSSHIVVSNCGDSRAVLFRGKEAMPLSVDHKPDREDEYARIENAGGKVIQWQGARVFGVLAMSRSIGDRYLKPYVIPEPEVTFMPRSREDECLILASDGLWDVMNNQEVCEIARRRILMWHKKNGAPPLAERGKGIDPACQAAADYLSMLALQKGSKDNISIIVIDLKAQRKFKTRT
For B1, the Kd (ABA-PYR1M complex; Biorep 1) was 2.53 nM and the Kd (ABA-PYR1M complex; Biorep 2) was 5.01 nM.

B2: T+ (723): stabilized, catalytically inactive ΔN-HAB1 derivative with 15 mutations (pJS723) (protein)
chain: RSVYELDSIPLWGTVSIQGNASEMEAAFAVVPHFLKLPIKMLMGDHEGMSPSLTHLTGHFFGVYDGHGGSKVADYCRDRLHEALAEEIERIKDELSKRNTGEGRQVQWKKVFTNCFLTVDGEIEGKIGRAVVGSSDKVLEAVASETVGSTAVVALVCSSHIVVANCGDSRAVLFRGKEAIPLSVDHKPDREDEYARIEAAGGKVIQWQGARVFGVLAMSRSIGDRYLKPYVIPEPEVTFMPRSEEDECLILASDGLWDVMSNQEVCEIARRRILMWHKKNGAPPLAERGKGIDPACQAAADYLSKLALQKGSKDNISIIVIDLKAQRKFKTRT
modifications: biotinylated in the ELISA-like assays
B2 gave a Kd (ABA-PYR1M complex; Biorep 1) of 2.13 nM and a Kd (ABA-PYR1M complex; Biorep 2) of 4.76 nM.
